According to patent publication US10508992B2, “Method and probe for monitoring oxygen status in live mammalian cells” (University College Cork, National University of Ir Cork, priority 2010, dated 2019):

Test system: MEF cells
Conditions: MEF cells loaded with probe 10 ug/ml, 12 h; different concentrations, added at 30 min, FIG. 6
Procedure: The plate was then measured on a Victor 2 reader as described in Example 4. Initially it was monitored for ˜30 min to reach O2 and temperature equilibrium and obtain basal signals, then quickly withdrawn from the reader, compounds were added to the cells (10 ul of 10× stock solution in each well) and monitoring was resumed. Measured TR-F intensity signals for each sample well were converted into phosphorescence lifetime (t) values and plotted. Control samples and repetitive additions were incorporated as appropriate.

SMILES: N#CC(C#N)=NNc1ccc(OC(F)(F)F)cc1 [FCCP]
- response of probe phosphorescence lifetime to stimulation: Increases in probe lifetime
